Results reported in patent US12097202B2 (Kadmon Corporation, LLC, priority 2022, dated 2024).

Key:
[1] = Clinical drug interaction studies, effects of other drugs on belumosudil in healthy subjects; assay type: in vivo, human
CYP2D6 = CYP2D6 (Homo sapiens, UniProt P10635); test: In vitro metabolism by CYP2D6; assay type: in vitro ADME
rat bone marrow = test: in vivo rat bone marrow micronucleus assay
CYP3A4 = CYP3A4 (Homo sapiens, UniProt P08684); test: In vitro metabolism by CYP3A4; assay type: in vitro ADME
[2] = test system: patients with chronic GVHD; settings: human, in vivo;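 note: allogeneic HCT recipients aged ≥12 years with persistent cGVHD after two to five earlier systemic treatment lines, responses judged by site investigators, 12-month analysis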
Source text: Concomitant treatment with supportive care therapies for chronic GVHD was permitted. […] Initiation of new systemic chronic GVHD therapy while on study was not permitted.
Eligible subjects were allogeneic hematopoietic cell transplant recipients aged ≥12 years with persistent cGVHD manifestations after receiving 2 to 5 prior systemic lines of therapy. Subjects were required to be receiving stable corticosteroid therapy for 2 weeks prior to screening and to have a Karnofsky or Lansky Performance Status Scale score≥60. Certain concurrent immunosuppressive medications were allowed because drug-drug interactions were not anticipated.
Randomization was stratified (1:1) by cGVHD severity and prior exposure to ibrutinib.
All responses were assessed by the study site investigators. Secondary end points included duration of response (DOR), time to response, changes in LSS summary score, failure-free survival (FFS), corticosteroid dose reductions, and overall survival (OS). DOR was measured from the time of initial PR or CR until documented progression from best response of cGVHD, time from initial response to start of additional systemic cGVHD therapy, or death. The 7-day LSS summary score was calculated based on the developer recommendations and was compared with the score from baseline; an improvement ≥7 points was considered clinically meaningful. […] Relative dose intensity (RDI) was used as a surrogate measure of drug tolerability and was defined as actual dose intensity/planned dose intensity, where dose intensity was defined as the cumulative dose over the duration of exposure (mg/d). Actual dose intensity captured the sum of actual doses received over the duration of exposure and incorporated dose reductions and/or interruptions.
The Hochberg procedure was used for multiplicity adjustment for the primary end point of best ORR. […] CI was calculated using the Clopper-Pearson interval (exact) method.

Chain of CYP2D6 (P10635 whole entry): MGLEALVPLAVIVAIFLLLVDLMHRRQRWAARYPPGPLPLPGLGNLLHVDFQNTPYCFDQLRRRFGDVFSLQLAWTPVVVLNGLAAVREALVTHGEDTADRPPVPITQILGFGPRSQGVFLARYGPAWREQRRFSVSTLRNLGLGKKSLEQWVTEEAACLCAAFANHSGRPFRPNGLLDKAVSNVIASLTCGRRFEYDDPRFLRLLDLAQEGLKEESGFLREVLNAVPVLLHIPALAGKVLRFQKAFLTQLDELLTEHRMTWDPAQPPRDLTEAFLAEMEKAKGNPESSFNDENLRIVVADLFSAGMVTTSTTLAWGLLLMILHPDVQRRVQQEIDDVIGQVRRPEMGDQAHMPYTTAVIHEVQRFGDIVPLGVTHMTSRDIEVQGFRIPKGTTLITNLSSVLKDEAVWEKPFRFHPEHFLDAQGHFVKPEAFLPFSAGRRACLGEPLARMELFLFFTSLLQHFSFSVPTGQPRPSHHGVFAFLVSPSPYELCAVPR
Chain of CYP3A4 (P08684 whole entry): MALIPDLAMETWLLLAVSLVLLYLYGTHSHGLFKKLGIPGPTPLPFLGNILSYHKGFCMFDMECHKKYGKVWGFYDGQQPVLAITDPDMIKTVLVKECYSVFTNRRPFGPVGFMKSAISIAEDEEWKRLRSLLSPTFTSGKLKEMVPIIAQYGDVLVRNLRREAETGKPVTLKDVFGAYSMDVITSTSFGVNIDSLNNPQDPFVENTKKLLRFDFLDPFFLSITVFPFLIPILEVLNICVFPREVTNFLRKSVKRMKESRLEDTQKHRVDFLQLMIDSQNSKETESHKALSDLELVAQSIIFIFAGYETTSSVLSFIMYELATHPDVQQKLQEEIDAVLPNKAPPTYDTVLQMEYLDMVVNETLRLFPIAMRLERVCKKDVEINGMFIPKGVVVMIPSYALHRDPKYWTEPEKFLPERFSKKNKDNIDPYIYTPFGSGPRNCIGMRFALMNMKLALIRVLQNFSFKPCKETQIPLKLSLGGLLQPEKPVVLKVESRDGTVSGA

CC(C)NC(=O)COc1cccc(-c2nc(Nc3ccc4[nH]ncc4c3)c3ccccc3n2)c1 [belumosudil, 2-{3-[4-(1H-indazol-5-ylamino)-2-quinazolinyl]phenoxy}-N-(propan-2-yl) acetamide]
decrease of belumosudil AUC with omeprazole [1]: 47% | decrease of belumosudil AUC with rabeprazole [1]: 80% | decrease of belumosudil AUC with rifampin [1]: 72% | decrease of belumosudil Cmax with omeprazole [1]: 68% | decrease of belumosudil Cmax with rabeprazole [1]: 87% | decrease of belumosudil Cmax with rifampin [1]: 59% | effect of itraconazole (strong CYP3A inhibitor) on belumosudil exposure [1]: no clinically meaningful effect | metabolism by CYP2D6 (CYP2D6): to a lesser extent | genotoxicity, bone marrow micronucleus assay (rat bone marrow): not genotoxic | metabolism by CYP3A4 (CYP3A4): primarily metabolized | Upper respiratory tract infection [2]: (27) %
